Assays:
Assay type in all cases: cell-based
PLS3 = PLS3 threonine phosphorylation: Ni-bead pulldown of His-tagged PLS3, Western blot with PT antibody, HeLa cells; details: HeLa cells with His-tagged PLS3, AD198 0, 2, 4 and 6 h
Method: Pulldown of His-tagged proteins from transfected HeLa cells—Transfected HeLa cells were washed with ice-cold phosphate-buffered saline (PBS) and incubated in the lysis buffer (50 mM NaH2PO4, 500 mM NaCl, 20 mM imidazole, 1% Triton X-100, 20 mM 2-mercaptoethanol, pH8.0) for 5 min and sonicated briefly on ice. The lysates were centrifuged at 10,000×g for 10 min at 4° C. The supernatant was saved and the protein concentration was measured with the Bio-Rad protein assay (Bio-Rad Laboratories, Hercules, Calif.) and adjusted to same concentrations for each sample. The supernatants were incubated with Ni-beads on a shaker for 2 h at 4° C. Beads were then pelleted at 800×g for 2 min at 4° C. and washed with ice-cold wash buffer (50 mM NaH2PO4, 500 mM NaCl, 20 mM imidazole, 1% Triton X-100, pH8.0) for five times. Beads were resuspended in SDS sample buffer and analyzed by Western blotting.
Western blot analysis—Equal amounts of protein were analyzed by 10% SDS-PAGE and electrotransferred to Immobilon-P membranes (Millipore Corporation, Bedford, Mass.). Monoclonal PKC-δ, PT, and β-actin and polyclonal VDAC antibodies were used at 1:1,000 and polyclonal PLS3 antibody was used at 1:2,000 for immunoblotting. Secondary anti-mouse or anti-rabbit antibodies conjugated with horseradish peroxidase were used at 1:2,000 and incubated with the membrane for 1 h at room temperature. […]

HeLa cells [1] = assay: CL distribution in mitochondria by NAO staining and flow cytometry in HeLa cells; details: 5 μM AD198 4 h
Method: (a) HeLa cells were treated with 5 μM AD198 or DMSO as control for 4 h. Cells were stained with different concentrations of NAO and the median fluorescent intensity was determined by flow cytometry. (b) The median fluorescent intensity value of control cells stained with 35 μM NAO was considered as 100% and used to calculate the percentages in each NAO concentration. Results were average of two independent experiments. (c) After transfection for 48 h, HeLa-control, HeLa-PLS3 and HeLa-PLS3(T21D) cells were stained with different concentrations of NAO and the median fluorescent intensity was determined by flow cytometry. The median fluorescent intensity value of 35 μM NAO was considered as 100% and used to calculate the percentage in each NAO concentration. Results were average of two independent experiments.
Analysis of CL distribution in the mitochondria outer membrane—NAO was used to determine the distribution of CL in mitochondria (Garcia Fernandez, et al. Anal Biochem 328:174-180 (2004)). When NAO binds CL at 2:1 ratio (in the saturated state), fluorescence emission occurs at 630 nm. When cells were incubated with increasing concentrations of NAO, NAO saturates CL in the outer member first and then the inner member of mitochondria. Lower concentrations of NAO (2.5-12 μM) were used to saturate CL in the mitochondrial outer member and to measure the amount of CL in that compartment. […]

HeLa cells [2] = assay: Apoptosis by PI staining and flow cytometry (subG1 population) in HeLa cells
Method: Cell culture, transfection and treatment—HeLa cells were cultured in Dulbecco's modified Eagle's medium (DMEM) containing 10% fetal bovine serum, 2 mM L-glutamine and penicillin (100 units/ml)-streptomycin (100 μg/ml) at 37° C. in a humidified 5% CO2 atmosphere. HeLa cells at 90% confluence were transfected with different mammalian expression vectors using Lipofectamin 2000 according to the manufacturer's protocol (Invitrogen Inc., Carlsbad, Calif.). At 24 h or 48 h after transfection, cells were treated with 1:100 dilution of AD198 that was dissolved in dimethyl sulfoxide (DMSO). For down-regulation of PLS3, HeLa cells at 50% confluence were transfected with siRNA against PLS3 or a scrambled control. At 48 h, cells were treated with AD198 for 16 h and harvested for flow cytometry. The whole cell lysate was extracted for analysis with Western blotting.
Analysis of apoptosis and determination of the transmembrane potential in mitochondria—Cell death was quantified by propidium iodide (PI) staining, followed by flow cytometry (Becton-Dickinson). HeLa cells were fixed in 0.5 ml cold 70% ethanol at −20° C. overnight. Cell pellet were resuspended in 300 μl of PBS containing 0.025 mg/ml PI, 0.05% Triton X-100, 0.1 mg/ml RNase A and incubated at room temperature for 30 min. The DNA content was evaluated by FACScan. For mitochondrial potential analysis, HeLa cells were incubated with MitoTracker Green at 37° C. for 20 min. The cells were collected and washed with PBS and analyzed by FACScan.
Cell culture, transfection, selection and treatment—HeLa cells were cultured in Dulbecco's modified Eagle's medium (DMEM) with 10% fetal bovine serum, 2 mM L-glutamine, 100 units/ml penicillin and 100 μg/ml streptomycin at 37° C. HeLa cells at 90% confluence were transfected with different mammalian expression vectors or siRNA using Lipofectamin 2000 according to the manufacturer's protocol (Invitrogen Inc., Carlsbad, Calif.). At 48 h after transfection, cells were incubated with 5 μM AD198 or dimethyl sulfoxide (DMSO) for 4 h or 16 h. After transfection, cells were selected with 1 mg/ml G418 for 2 wk. After corresponding mock-transfected cells were killed by G418, the concentration of G418 was decreased to 0.5 mg/ml and maintained for another 2 wk. The whole cell lysates or subcellular fractions were extracted for Western blotting analysis (Liu et al. (2003)).
Analysis of apoptosis—HeLa cells were harvested and fixed in 70% ethanol at −20° C. overnight. Cells were then washed with PBS and stained with 0.025 mg/ml propidium iodide (PI), 0.05% Triton X-100, 0.1 mg/ml RNase A for 30 min at room temperature. The DNA content was analyzed by FACScan (Becton-Dickinson), and the subG0/G1 population was used to represent apoptosis.

## CCCCC(=O)OCC(=O)[C@]1(O)Cc2c(O)c3c(c(O)c2[C@@H](O[C@H]2C[C@H](NCc4ccccc4)[C@H](O)[C@H](C)O2)C1)C(=O)c1c(OC)cccc1C3=O [AD198, N-benzyladriamycin-14-valerate]
PLS3
  threonine phosphorylation of PLS3: steadily increased
HeLa cells [1]; HeLa cells
  absolute NAO fluorescence (amount of CL): decrease in absolute NAO fluorescence
HeLa cells [1]; NAO concentrations lower than 9 μM
  percentage of CL in the outer membrane: higher percentage of CL than control cells
HeLa cells [2]; HeLa cells expressing PLS3(T21A), 5 μM AD198, 16 h (FIG. 9)
  AD198-induced apoptosis: same degree of apoptosis as the control cells
HeLa cells [2]; HeLa cells expressing wild-type PLS3, 5 μM AD198, 16 h (FIG. 9)
  percentage of AD198-induced apoptosis: 31%
HeLa cells [2]; HeLa cells expressing wild-type PLS3, 5 μM AD198, 16 h (FIG. 11), DMSO 9%
  apoptosis after AD198 treatment: 43%
HeLa cells [2]; HeLa cells transfected with PLS3(T21D), 5 μM AD198, 16 h (FIG. 11), DMSO 17%
  apoptosis after AD198 treatment: 27%
HeLa cells [2]; HeLa cells, AD198 1, 5 and 10 μM, 16 h
  AD198-induced apoptosis when PKC-δ down regulated by siRNA: less apoptosis was detected
HeLa cells [2]; HeLa cells, three concentrations of AD198, 16 h, versus without PLS3 overexpression
  sensitivity to AD198-induced apoptosis of cells with overexpression of PLS3: more sensitive
HeLa cells [2]; HeLa cells, versus scrambled siRNA control, 16 h
  AD198-induced apoptosis in cells transfected with siRNA against PLS3: suppressed
HeLa cells [2]; HeLa-control cells, 5 μM AD198, 16 h (FIG. 11), DMSO 6%
  apoptosis after AD198 treatment: 22%
HeLa cells [2]; control HeLa cells, 5 μM AD198, 16 h (FIG. 9)
  percentage of AD198-induced apoptosis: 7%
